Data reported in patent publication US5902736A, “Process for the production of D-α-amino acids by hydrolysis of the corresponding N-carbamyl derivative” (priority 1992, dated 1999).

Tests used:
Type in all cases: cell-based
[1] = tested on: Blastobacter sp. A 17 p-4; assay: Promoters for the production of Blastobacter sp. A 17 p-4 decarbamylase; conditions: for decarbamylase yield of Blastobacter sp. A 17 p-4, effect of metal ions: 2 mM metal ion plus 0.15% (w/v) uracil in medium D, 4 days at 28° C.; for decarbamylase yield of Blastobacter sp. A 17 p-4: 0.15% (w/v) additive in medium D, 3 days at 28° C., D-HPG formation at 40° C.
Description: The strain was cultured at 28° C. for 3 days in the medium D (as defined in Example 4) additionally containing 0.15% (w/v) of a substance as listed in FIG. 7. Then, D-HPG was formed in the same way as in Example 4 but that the reaction temperature was 40° C., and quantitated by HPLC.
In order to examine the effects of metal ions on the enzyme productivity, the strain was cultured at 28° C. for 4 days in the medium D additionally containing 0.15% (w/v) of uracil and 2 mM a metal ion as listed in FIG. 8. It was found by quantitating D-HPG that ions such as Fe^2+, Fe^3+, Li^+, Cs^+, Be^2+, Mg^2+, Mn^2+, Co^2+ and Al^3+ increased the decarbamylase yield.

[2] = tested on: decarbamylase of Comamonas sp. E 222 C; assay: Substrate specificity of decarbamylase, cells of Comamonas sp. E 222 C; conditions: cell suspension, 24 hours at 30° C.; for Substrate conversion, Comamonas sp. E 222 c (conversion to amino acids): 1% (w/v) substrate, 200 mM potassium phosphate
Description: For the determination of substrate specificity of decarbamylase of Comamonas sp. E 222 C and Blastobacter sp. A 17 p-4, these strains were cultured at 28° C. in the medium C (as described in Example 2) for 1 day (E 222 C) and 7 days (A 17 p-4). Three ml of the culture medium was centrifuged to separate the microorganism, which was suspended in 300 μl of a substrate solution (200 mM potassium phosphate, 1% (w/v) a substrate as listed below) and incubated for 24 hours at 30° C. (E 222 C) or 50° C. (A 17 p-4).

[3] = tested on: decarbamylase of Blastobacter sp. A 17 p-4; assay: Substrate specificity of decarbamylase, cells of Blastobacter sp. A 17 p-4; conditions: 1% (w/v) substrate, 200 mM potassium phosphate, cell suspension, 24 hours at 30° C.
Description: For the determination of substrate specificity of decarbamylase of Comamonas sp. E 222 C and Blastobacter sp. A 17 p-4, these strains were cultured at 28° C. in the medium C (as described in Example 2) for 1 day (E 222 C) and 7 days (A 17 p-4). […] (E 222 C) or 50° C. (A 17 p-4).

Comamonas sp. E 222 C = assay: Promoters for the production of Comamonas sp. E 222 C decarbamylase; conditions: 0.15% (w/v) additive in medium D, 2 days at 28° C.; D-HPG from 35 mM C-D-HPG, 24 hours at 30° C.
Description: The strain was cultured in a nutrient medium D (1 g/l KH2 PO4, 1 g/l K2 HPO4, 0.3 g/l MgSO4 ·7H2 O, 3 g/l yeast extract, 3 g/l meat extract, 10 g/l glycerol, 2 g/l polypeptone; pH 7.0) for 2 days at 28° C. The culture medium additionally contained a substance as listed in FIG. 2 in a concentration of 0.15% (w/v).
One ml of the culture medium was centrifuged to collect the microorganism, which was suspended in 100 μl of a substrate solution (35 mM C-D-HPG, 200 mM potassium phosphate; pH 7.0). After 24 hours at 30° C., D-HPG was quantitated by HPLC according to the procedure described in Example 2.

Compound | Substrate conversion, Comamonas sp. E 222 c (conversion to amino acids) [2] | Substrate conversion, Blastobacter sp. A 17 p-4 (conversion to amino acids) [3] | other results
[Co+2] [Co^2+] | – | – | decarbamylase yield of Blastobacter sp. A 17 p-4, effect of metal ions [1]: increased
CC(C)C[C@@H](NC(N)=O)C(=O)O [N-Carbamyl-D-leucine] | ++++ (++++: 100%) | +++ (+++: <80%) | –
N[C@@H](C(=O)O)c1ccccc1 [D-phenylglycine] | – | – | decarbamylase productivity of Comamonas sp. E 222 C (Comamonas sp. E 222 C): improved
[Mg+2] [Mg^2+] | – | – | decarbamylase yield of Blastobacter sp. A 17 p-4, effect of metal ions [1]: increased
O=C1NC(=O)C(c2ccc(O)cc2)N1 (racemic) [DL-5-p-Hydroxyphenylhydantoin] | - (-: 0%) | ++ (++: <50%) | –
NC(=O)N[C@H](CO)C(=O)O [N-Carbamyl-D-serine] | + (+: <10%) | - (-: 0%) | –
CCCC(NC(N)=O)C(=O)O (racemic) [N-Carbamyl-DL-norvaline] | ++ (++: <50%) | ++ (++: <50%) | –
CC(C)[C@@H](NC(N)=O)C(=O)O [N-Carbamyl-D-valine] | ++++ (++++: 100%) | +++ (+++: <80%) | –
NC(=O)N[C@H](Cc1ccccc1)C(=O)O [N-Carbamyl-D-phenylalanine, N-carbamyl-D-phenylalanine] | ++++ (++++: 100%) | +++ (+++: <80%) | –
CC1NC(=O)NC1=O (racemic) [DL-5-Methylhydantoin] | - (-: 0%) | ++ (++: <50%) | –
NC(N)=O [urea] | – | – | decarbamylase productivity of Comamonas sp. E 222 C (Comamonas sp. E 222 C): improved
NC(=O)N[C@@H](C(=O)O)c1ccc(O)cc1 [N-Carbamyl-D-p-hydroxyphenylglycine] | +++ (+++: <80%) | ++ (++: <50%) | –
NC(=O)NC(CC(=O)O)C(=O)O (centres unmarked) [Ureidosuccinic acid] | - (-: 0%) | - (-: 0%) | –
CSCCC(NC(N)=O)C(=O)O (racemic) [N-Carbamyl-DL-methionine, N-carbamyl-DL-methionine] | ++ (++: <50%) | ++ (++: <50%) | decarbamylase productivity of Comamonas sp. E 222 C (Comamonas sp. E 222 C): improved
CCCCC(NC(N)=O)C(=O)O (racemic) [N-Carbamyl-DL-norleucine] | ++ (++: <50%) | ++ (++: <50%) | –
[Mn+2] [Mn^2+] | – | – | decarbamylase yield of Blastobacter sp. A 17 p-4, effect of metal ions [1]: increased
O=c1cc[nH]c(=O)[nH]1 [uracil] | – | – | decarbamylase yield of Blastobacter sp. A 17 p-4 [1]: increased
[Al+3] [Al^3+] | – | – | decarbamylase yield of Blastobacter sp. A 17 p-4, effect of metal ions [1]: increased
C[C@@H](NC(N)=O)C(=O)O [N-Carbamyl-D-alanine] | ++++ (++++: 100%) | +++ (+++: <80%) | –
[Cs+] [Cs^+] | – | – | decarbamylase yield of Blastobacter sp. A 17 p-4, effect of metal ions [1]: increased
[Fe+2] [Fe^2+] | – | – | decarbamylase yield of Blastobacter sp. A 17 p-4, effect of metal ions [1]: increased
[Li+] [Li^+] | – | – | decarbamylase yield of Blastobacter sp. A 17 p-4, effect of metal ions [1]: increased
O=C1CCNC(=O)N1 [dihydrouracil] | – | – | decarbamylase yield of Blastobacter sp. A 17 p-4 [1]: increased
[Be+2] [Be^2+] | – | – | decarbamylase yield of Blastobacter sp. A 17 p-4, effect of metal ions [1]: increased

More lines, main results first:

Substrate conversion, Comamonas sp. E 222 c (conversion to amino acids) [2] | Compound | Substrate conversion, Blastobacter sp. A 17 p-4 (conversion to amino acids) [3] | other results
++++ (++++: 100%) | NC(=O)NCCC(=O)O [β-Ureidopropionic acid] | - (-: 0%) | decarbamylase yield of Blastobacter sp. A 17 p-4 [1]: increased; decarbamylase productivity of Comamonas sp. E 222 C (Comamonas sp. E 222 C): improved; hydrolysis by Comamonas sp. E 222 C, in words [2]: could hydrolize
- (-: 0%) | O=C1NC(=O)C(c2ccccc2)N1 (racemic) [DL-5-Phenylhydantoin] | ++ (++: <50%) | –
+++ (+++: <80%) | NC(=O)N[C@@H](C(=O)O)c1ccccc1 [N-Carbamyl-D-phenylglycine] | +++ (+++: <80%) | –
- (-: 0%) | CN(CC(=O)O)C(N)=O [N-Carbamyl-sarcosine] | - (-: 0%) | –
+ (+: <10%) | C[C@@H](O)[C@H](NC(N)=O)C(=O)O (racemic) [N-Carbamyl-DL-threonine] | - (-: 0%) | –
